Read-outs that look alike come from different tables or passages of the source.
Tested on: SMN2-luciferase reporter
Assay: SMN2-luciferase reporter assay (clonal HEK-293 SMN2-luc cells)
Type: cell-based, human
Design: % activation: concentration or dose not given beside the values
Details: for % activation: Table 5; for Emax: read-out: Max % Activity; for Max. fold increase: cell-based reporter response to known SMN2 modulating compounds
Procedure: The reporter cell lines were plated at 50,000 cells per well in 96-well plates and incubated overnight. Compounds were added to each well and incubated at 37° C. overnight. The final DMSO concentration was 0.1%. Luciferase activity was assayed using either STEADYGLO (PROMEGA E2510) or DUALGLO (PROMEGA E2920) luciferase using the WALLAC ENVISION multilabel reader. For detailed assay conditions see Table 2A. All data points were transformed from CPS to percent increase over basal expression in the treated control wells (DMSO or H2O as appropriate).
Plates were sealed with porous paper tape and incubated for 24 hours. […] For comparison, data points were transformed from CPS to percent activation over basal expression in the DMSO treated control wells.
For comparison, all data points are expressed as percent increase over basal luciferase expression in the control cells.

[1] = Homo sapiens, HEK293, reporter assay, Table 6, read-out: Ec50
[2] = Homo sapiens, HEK293, reporter assay, Table 6

EC50 [1]	Compound	Active (reporter assay, Table 6)	Emax [2]	also measured
–	COc1cc2c(c(OC)c1OC)C(c1cc(Cl)ccc1F)N(CCN(C)C)C(=O)N2 (stereo not shown) [LDN-214097]	No	–	–
–	N#Cc1ccsc1NC(=O)CCc1ccccc1 [Compound 110425]	–	–	% activation (reporter assay): 93%
2100 nM	Cc1csc(NC(=O)c2ccc(F)c(Cl)c2)n1 [LDN-211984]	Yes	200%	–
–	CC(C)(C)c1cc(NS(=O)(=O)c2ccc3ccccc3c2)no1 [LDN-211859]	No	–	–
–	CC(C)(C)C(=O)Nc1nc(COc2ccccc2)cs1 [Compound 109981]	–	–	% activation (reporter assay): 98%
91000 nM	COc1cc2c(c(OC)c1OC)C(c1c(F)cccc1Cl)CC(=O)N2 (stereo not shown) [CAL-53]	Yes	27%	–
–	CC(C)(C)c1cc(NC(=O)c2nc3ccccc3[nH]2)no1 [LDN-214095]	No	–	–
500 nM	CC(C)(C)c1cc(NC(=O)c2ccc3ccccc3c2)no1 [LDN-211854]	Yes	200%	–
–	COc1cc(Br)c(C2CC(=O)Nc3cc(OC)c(OC)c(OC)c32)cc1OC (stereo not shown) [CAL-51]	No	–	–
2000 nM	O=C(Nc1ccc(F)c(Cl)c1)C1=NOC(C2CC2)C1 (stereo not shown) [CAL-10]	Yes	250%	–
–	CC(C)c1cc(NC(=O)Cc2ccc(F)c(Cl)c2)no1 [LDN-211832]	No	–	–
–	C=C1CC(c2cccc3ccccc23)c2c(cc(OC)c(OC)c2OC)N1 (stereo not shown) [LDN-212350]	No/Weak	–	–
150 nM	CC(C)(C)c1coc(NC(=O)c2ccc(F)c(Cl)c2)n1 [LDN-211992]	Yes	100%	–
1500 nM	O=C(Nc1ccc(F)c(Cl)c1)c1cc(Cc2ccccc2)on1 [LDN-211855]	Yes	125%	–
43000 nM	COc1cc2c(c(OC)c1OC)C(c1cccc3ccccc13)CC(=O)N2 (stereo not shown) [LDN-212356]	Yes	150%	–
–	COc1cc2c(c(OC)c1OC)C(c1cc(Cl)ccc1F)NC(=O)N2 (stereo not shown) [LDN-213767]	Yes	–	Max % Activity (reporter assay, Table 6): 125%; EC50 (reporter assay, Table 6, read-out: Ec50): 8400 nM
–	CC(C)C1CC(C(=O)Nc2ccc(F)c(Cl)c2)=NO1 (stereo not shown) [LDN-211862]	Nonspecific	–	–
251000 nM	COc1cc2c(c(OC)c1OC)C(c1ccccc1Cl)CC(=O)N2 (stereo not shown) [CAL-21]	Yes	14%	–
400 nM	CC(C)(C)c1cc(NC(=O)c2cc3ccccc3[nH]2)no1 [LDN-211911]	Yes	175%	–
1100 nM	CC(C)c1cc(C(=O)Nc2ccc3ccccc3c2)no1 [LDN-211826]	Yes	150%	–
–	O=C(Nc1nc(-c2ccccc2)cs1)c1ccc(F)c(Cl)c1 [LDN-211983]	No	–	–
–	COc1cc2c(c(OC)c1)C(c1cc(Br)ccc1F)CC(=O)N2 (stereo not shown) [LDN-212264]	No	–	–
–	CCCC1C(=O)Nc2cc(OC)c(OC)c(OC)c2C1c1cc(Cl)ccc1F (stereo not shown) [LDN-214096]	No	–	–
–	CC(C)c1cc(C(=O)Nc2ccc(F)c(Cl)c2)nn1C [LDN-211856]	No	–	–
1700 nM	CC(C)c1nc(C(=O)Nc2ccc(F)c(Cl)c2)co1 [LDN-212015]	Yes	100%	–

EC50 [1]	Compound	Active (reporter assay, Table 6)	Emax [2]	also measured
–	COc1cc2c(c(OC)c1OC)C(c1cccc(C(F)(F)F)c1)CC(=O)N2 (stereo not shown) [CAL-55]	No	–	–
–	Cc1cc(NC(=O)C2=NOC(C)C2)no1 (stereo not shown) [CAL-3]	No	–	–
–	COc1cc2c(c(OC)c1OC)C(c1cccnc1)CC(=O)N2 (stereo not shown) [LDN-76158]	No	–	–
–	CC(C)(O)c1sc(NC(=O)C2CCC(F)C(Cl)C2)nc1C(F)(F)F (stereo not shown) [LDN-213766]	No	–	–
1500 nM	CC(C)Cc1cc(C(=O)Nc2ccc(F)c(Cl)c2)no1 [LDN-75879]	Yes	180%	–
1000 nM	COc1ccc(NC(=O)c2cc(C(C)C)on2)c(OC)c1 [CAL-27]	Yes	125%	–
–	COc1ccc(-c2cn3cccc(C)c3n2)cc1Br [Compound 32531]	–	–	% activation (reporter assay): 108%
–	COc1cc2c(c(OC)c1OC)C(c1ccc(F)c(F)c1)CC(=O)N2 (stereo not shown) [CAL-57]	No	–	–
2500 nM	CC(C)c1cc(NC(=O)c2ccc(F)c(Cl)c2)on1 [LDN-211860]	Yes	125%	–
500 nM	O=C(Nc1nc(C2CCC2)cs1)c1ccc(F)c(Cl)c1 [LDN-212013]	Yes	100%	–
–	CC(C)(C)c1c[nH]c(NC(=O)c2ccc(F)c(Cl)c2)n1 [LDN-212012]	No	–	–
–	Cc1c(C(=O)NCCC(C)C)oc2ccc3c(c12)C(O)CC(C)(C)O3 (stereo not shown) [Compound 79199]	–	–	% activation (reporter assay): 102%
–	O=C(Nc1nc2c(s1)Cc1ccccc1-2)C1=COCCO1 [Compound 110181]	–	–	% activation (reporter assay): 120%
–	COc1cc2c(c(OC)c1OC)C(c1ccc3ccccc3c1)CC(=O)N2 (stereo not shown) [LDN-212357]	No	–	–
–	COc1cc2c(c(OC)c1OC)C(c1cccc3ccccc13)CC(=O)N2 (stereo not shown) [LDN-212355]	No/Weak	–	–
–	CC(C)(C)c1cc(NC(=O)c2cc3ccccc3o2)no1 [LDN-211909]	No/Weak	–	–
–	C=C/C(Cl)=C(\CCl)NC(=O)c1cc(C(C)C)on1 [CAL-30]	No	–	–
–	O=C(Nc1ccc(F)c(Cl)c1)c1cc(C2CCCCC2)on1 [LDN-211829]	No/Weak	–	–
–	CC(C)c1cc(C(=O)Nc2ccc(F)c(Cl)c2)n[nH]1 [LDN-211830]	No	–	–
5900 nM	COc1cc2c(c(OC)c1OC)C(c1cc(Cl)ccc1F)OC(=O)N2 (stereo not shown) [LDN-213768]	Yes	150%	–
–	CC1CC(C(=O)NC2CCCc3ccccc32)=NO1 (stereo not shown) [CAL-1]	No	–	–
3700 nM	CC(C)(C)c1cc(NC(=O)c2ccc(F)c(Cl)c2)on1 [LDN-211861]	Yes	100%	–
–	NC[C@H]1O[C@H](O[C@H]2[C@H](O)[C@@H](O[C@H]3O[C@H](CO)[C@@H](O)[C@H](N)[C@H]3O)[C@H](N)C[C@@H]2N)[C@H](N)C[C@@H]1O [Tobramycin, tobramycin, reference compound]	–	–	response of luciferase activity in the reporter cell lines (SMN1-luc and SMN2-luc cell lines, words): no response; Max. fold increase: inactive ^a; EC50 (cell-based reporter, result in words): inactive ^a
–	COc1cc2c(c(OC)c1OC)C(c1ccccc1F)CC(=O)N2 (stereo not shown) [CAL-22]	No	–	–
–	Brc1ccc(OCc2cn3cccnc3n2)c(Br)c1 [Compound 67615]	–	–	% activation (reporter assay): 105%

EC50 [1]	Compound	Active (reporter assay, Table 6)	Emax [2]	also measured
350 nM	CC(C)c1cc(C(=O)Nc2cccc(Cl)c2)no1 [CAL-25]	Yes	237%	–
–	Cc1ccc(-c2cc(-c3ccccc3Cl)[nH]n2)c(O)c1 [Compound 72939]	–	–	% activation (reporter assay): 102%
–	CC(C)c1cc(C(=O)Nc2ccc(F)c(Cl)c2)n(C)n1 [LDN-211857]	No	–	–
–	COc1cc2c(c(OC)c1OC)C(c1cccc(-c3ccccc3)c1)CC(=O)N2 (stereo not shown) [LDN-212267]	No	–	–
–	CC(/C=C/C(=O)NO)=C\[C@@H](C)C(=O)c1ccc(N(C)C)cc1 [Trichostatin A, trichostatin A, reference compound]	–	–	Max. fold increase: 15 fold; EC50 (cell-based reporter, known SMN2 modulating compounds, read-out: EC50): 230 nM
10000 nM	CC1CC(C(=O)Nc2ccc(F)cc2)=NO1 (stereo not shown) [CAL-5]	Yes	108%	–
5900 nM	CC(C)(C)c1nnc(NC(=O)c2ccc(F)c(Cl)c2)s1 [LDN-211981]	Yes	100%	–
–	COc1cc2[nH]c(=O)cc(-c3cc(Br)ccc3F)c2c(OC)c1OC [LDN-212265]	No	–	–
–	CC(C)(C)c1cc(NC(=O)c2ccc3ccccc3n2)no1 [LDN-211908]	No/Weak	–	–
20000 nM	O=C(Nc1ccc(F)c(Cl)c1)c1cc(C2CCCC2)on1 [LDN-211828]	Yes	100%	–
–	CCOc1ccc(Br)cc1C1CC(=O)Nc2cc(OC)c(OC)c(OC)c21 (stereo not shown) [CAL-50]	No	–	–
–	COC1=C2C(=CC(OC)C1OC)NC(=O)CC2c1cc(NC(=O)c2ccccc2)ccc1F (stereo not shown) [LDN-212359]	No	–	–
–	CCN(CC)CCCNC(=O)c1cc(C2CC2)on1 [CAL-42]	No	–	–
–	COc1cc2c(c(OC)c1OC)C(c1ccc(Cl)cn1)CC(=O)N2 (stereo not shown) [LDN-212392]	No	–	–
800 nM	Cc1cnc(NC(=O)c2ccc(F)c(Cl)c2)s1 [LDN-211985]	Yes	150%	–
–	CCN1C(=O)c2cccc3c(S(=O)(=O)NC4CCCC4)ccc1c23 [Compound 109657]	–	–	% activation (reporter assay): 152%
900 nM	CC(C)c1cc(C(=O)Nc2cc(Cl)ccc2Cl)no1 [CAL-28]	Yes	59%	–
–	CC(C)c1cc(C(=O)NCc2ccc(F)c(Cl)c2)no1 [LDN-211834]	No	–	–
1500 nM	CC(C)c1nc(C(=O)Nc2ccc(F)c(Cl)c2)cs1 [LDN-211986]	Yes	100%	–
–	CC(C)(C)c1cc(=O)[nH]c(NC(=O)c2ccc(F)c(Cl)c2)n1 [LDN-212026]	No	–	–
–	CC(=O)N1c2ccccc2C(Nc2ccccc2)CC1C (stereo not shown) [Compound 66854]	–	–	% activation (reporter assay): 210%
–	O=C(Nc1nc(-c2ccccc2)co1)c1ccc(F)c(Cl)c1 [LDN-212011]	No	–	–
–	Brc1ccc(-c2cn3ccccc3n2)cc1 [Compound 66278]	–	–	% activation (reporter assay): 114%
–	COC1=CC2NC(=O)CC(c3cc(NC(C)=O)ccc3F)C2C(OC)=C1OC (stereo not shown) [LDN-212360]	No	–	–

Reference: patent publication US9212209B2, “Screening methods for spinal muscular atrophy” (Indiana University Research and Technology Corporation, priority 2012, dated 2015)
